Values joined by “and” are separate entries in the source; they are usually repeats but may differ in a detail not shown here. Equal entries are not always repeated. Where two headings read alike, the source gives them in different places. Positions of bridges follow the written chain, without caps; N, C: chain ends. Non-standard residues stand in square brackets, D forms with d. Residues, ends and D or L forms follow the SMILES beside them. Groups on a side chain read outwards from the residue. *: point of attachment. X1 = O=C(COCC(=O)*)NCCOCCOCCOCCOCCOCCNC(=O)CO/N=C/c1ccc(F)cc1; X2 = NC(=O)COCC(=O)NCCOCCOCCOCCN*; dPhg = N[C@@H](C(=O)O)c1ccccc1; AEEA = NCCOCCOCC(=O)O; Mpa = O=C(O)CCS
What was measured:
α5β1 integrin [1] = biological target: T1, α5β1 integrin (Homo sapiens, UniProt P05556+P08648); assay: ELISA-like solid-phase binding assay, soluble integrin α5β1 vs coated fibronectin; set-up: purchased R&D
[2] = biological target: T2, human platelet integrin αIIbβ3 (Homo sapiens, UniProt P05106+P08514); assay: ELISA-like solid-phase binding assay, soluble integrin αIIbβ3 vs coated fibrinogen; details: referenced to internal standard
T2 construct: purchased VWR

human αvβ3-integrin = biological target: T3, human αvβ3-integrin (Homo sapiens, UniProt P05106+P06756); assay: ELISA-like solid-phase binding assay, soluble integrin αvβ3 vs coated vitronectin; details: for IC50: coated vitronectin, soluble integrin, referenced to internal standard
T3 construct: purchased R&D
T3 sequence (P06756 31-992 limits assumed): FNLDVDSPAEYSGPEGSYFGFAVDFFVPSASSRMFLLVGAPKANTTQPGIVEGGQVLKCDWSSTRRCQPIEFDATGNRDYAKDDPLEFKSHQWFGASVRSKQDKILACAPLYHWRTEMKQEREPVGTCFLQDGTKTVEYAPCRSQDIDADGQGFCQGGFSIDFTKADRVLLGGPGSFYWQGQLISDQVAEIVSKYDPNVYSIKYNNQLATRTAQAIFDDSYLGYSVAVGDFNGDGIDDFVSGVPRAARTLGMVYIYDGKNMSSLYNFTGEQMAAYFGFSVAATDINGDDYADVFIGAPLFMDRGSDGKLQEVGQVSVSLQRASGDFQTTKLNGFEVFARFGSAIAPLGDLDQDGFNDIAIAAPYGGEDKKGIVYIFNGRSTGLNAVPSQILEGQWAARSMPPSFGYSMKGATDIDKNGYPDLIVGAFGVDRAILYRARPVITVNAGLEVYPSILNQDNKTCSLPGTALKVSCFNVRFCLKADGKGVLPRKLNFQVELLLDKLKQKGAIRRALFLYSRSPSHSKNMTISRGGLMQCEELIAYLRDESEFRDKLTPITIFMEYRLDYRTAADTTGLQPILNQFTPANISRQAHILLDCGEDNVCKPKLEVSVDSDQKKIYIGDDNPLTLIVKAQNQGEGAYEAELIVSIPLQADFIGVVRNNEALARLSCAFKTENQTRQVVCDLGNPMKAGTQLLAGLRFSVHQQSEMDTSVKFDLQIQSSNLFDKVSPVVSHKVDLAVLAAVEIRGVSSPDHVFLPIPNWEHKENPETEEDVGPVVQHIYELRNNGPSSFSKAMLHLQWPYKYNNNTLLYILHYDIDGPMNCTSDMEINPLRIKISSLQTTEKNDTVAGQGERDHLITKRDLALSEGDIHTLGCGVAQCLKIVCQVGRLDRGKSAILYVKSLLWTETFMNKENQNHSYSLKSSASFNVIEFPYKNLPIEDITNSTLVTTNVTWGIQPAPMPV
T3 sequence (P05106 27-718 limits assumed): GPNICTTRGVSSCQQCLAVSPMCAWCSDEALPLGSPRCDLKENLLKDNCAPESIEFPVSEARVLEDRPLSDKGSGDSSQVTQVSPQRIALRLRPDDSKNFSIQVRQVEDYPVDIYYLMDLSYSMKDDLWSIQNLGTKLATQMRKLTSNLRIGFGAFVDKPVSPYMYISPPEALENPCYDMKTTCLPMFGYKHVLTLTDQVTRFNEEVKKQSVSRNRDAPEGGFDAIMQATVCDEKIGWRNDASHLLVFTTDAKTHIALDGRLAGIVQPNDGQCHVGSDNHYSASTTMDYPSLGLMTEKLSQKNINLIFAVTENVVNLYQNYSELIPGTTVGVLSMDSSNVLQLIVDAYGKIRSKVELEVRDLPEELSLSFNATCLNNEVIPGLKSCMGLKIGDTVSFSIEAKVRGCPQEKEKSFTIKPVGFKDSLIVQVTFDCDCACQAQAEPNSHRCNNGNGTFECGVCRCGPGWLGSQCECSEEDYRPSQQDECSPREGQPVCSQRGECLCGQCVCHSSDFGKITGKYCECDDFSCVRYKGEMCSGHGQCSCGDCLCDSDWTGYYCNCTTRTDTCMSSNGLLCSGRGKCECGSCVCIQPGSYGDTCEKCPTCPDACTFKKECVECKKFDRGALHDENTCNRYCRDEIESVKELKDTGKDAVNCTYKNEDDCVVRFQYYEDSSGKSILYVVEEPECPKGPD

human αvβ8-Integrin = biological target: T4, human αvβ8-Integrin (Homo sapiens, UniProt P06756+P26012); assay: ELISA-like solid-phase binding assay, soluble integrin αvβ8 vs coated LAP (TGF-β); details: referenced to internal standard
T4 construct: purchased R&D
T4 sequence (P06756 31-992 limits assumed): as the sequence (P06756 31-992 limits assumed) above
T4 sequence (P26012 43-684 limits assumed): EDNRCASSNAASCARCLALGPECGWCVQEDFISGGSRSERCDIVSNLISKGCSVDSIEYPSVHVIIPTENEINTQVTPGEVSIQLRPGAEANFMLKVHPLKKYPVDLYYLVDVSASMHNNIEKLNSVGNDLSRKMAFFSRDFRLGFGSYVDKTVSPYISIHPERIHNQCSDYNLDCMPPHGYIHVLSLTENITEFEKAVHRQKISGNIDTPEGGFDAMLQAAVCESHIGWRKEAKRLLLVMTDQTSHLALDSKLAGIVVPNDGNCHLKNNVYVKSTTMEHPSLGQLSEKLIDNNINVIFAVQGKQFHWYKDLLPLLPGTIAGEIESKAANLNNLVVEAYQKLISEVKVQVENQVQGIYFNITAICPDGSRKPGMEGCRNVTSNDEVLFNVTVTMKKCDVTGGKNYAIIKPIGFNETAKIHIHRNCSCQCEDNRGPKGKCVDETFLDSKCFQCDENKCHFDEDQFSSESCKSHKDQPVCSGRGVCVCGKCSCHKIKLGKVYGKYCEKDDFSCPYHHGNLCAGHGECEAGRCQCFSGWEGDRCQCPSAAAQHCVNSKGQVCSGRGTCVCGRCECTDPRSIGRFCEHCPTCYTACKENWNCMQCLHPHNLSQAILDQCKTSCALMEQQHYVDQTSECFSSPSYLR

human αvβ5-integrin = biological target: T5, human αvβ5-integrin (Homo sapiens, UniProt P06756+P18084); assay: ELISA-like solid-phase binding assay, soluble integrin αvβ5 vs coated vitronectin; details: referenced to internal standard
T5 construct: purchased Millipore
T5 sequence (P06756 31-1048): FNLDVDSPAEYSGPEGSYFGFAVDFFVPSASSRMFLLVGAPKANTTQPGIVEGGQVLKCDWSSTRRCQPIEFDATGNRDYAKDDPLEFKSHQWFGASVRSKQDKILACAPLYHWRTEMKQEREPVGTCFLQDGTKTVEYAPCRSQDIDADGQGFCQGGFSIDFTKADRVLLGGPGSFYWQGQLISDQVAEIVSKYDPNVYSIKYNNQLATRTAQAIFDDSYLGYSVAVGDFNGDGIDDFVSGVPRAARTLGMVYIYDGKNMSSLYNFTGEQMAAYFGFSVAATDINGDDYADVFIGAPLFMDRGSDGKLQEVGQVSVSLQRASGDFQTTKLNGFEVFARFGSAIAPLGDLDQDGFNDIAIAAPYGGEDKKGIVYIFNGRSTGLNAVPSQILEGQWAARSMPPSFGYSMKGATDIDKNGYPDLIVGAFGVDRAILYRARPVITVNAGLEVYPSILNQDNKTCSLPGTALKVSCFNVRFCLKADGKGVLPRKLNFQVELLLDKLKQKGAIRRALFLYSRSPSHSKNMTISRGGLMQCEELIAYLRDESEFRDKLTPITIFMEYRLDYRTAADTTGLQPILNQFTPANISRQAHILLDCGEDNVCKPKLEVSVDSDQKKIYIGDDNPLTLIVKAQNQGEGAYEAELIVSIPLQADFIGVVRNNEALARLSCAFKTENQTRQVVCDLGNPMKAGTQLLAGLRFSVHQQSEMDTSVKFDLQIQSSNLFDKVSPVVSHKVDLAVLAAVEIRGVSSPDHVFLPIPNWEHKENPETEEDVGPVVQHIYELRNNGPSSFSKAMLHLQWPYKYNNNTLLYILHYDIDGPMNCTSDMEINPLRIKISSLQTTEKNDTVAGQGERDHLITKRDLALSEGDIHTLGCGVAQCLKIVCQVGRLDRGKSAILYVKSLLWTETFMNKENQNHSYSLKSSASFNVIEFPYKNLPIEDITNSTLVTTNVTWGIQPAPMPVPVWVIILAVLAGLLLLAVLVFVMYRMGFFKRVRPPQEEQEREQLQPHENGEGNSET
T5 sequence (P18084 24-799): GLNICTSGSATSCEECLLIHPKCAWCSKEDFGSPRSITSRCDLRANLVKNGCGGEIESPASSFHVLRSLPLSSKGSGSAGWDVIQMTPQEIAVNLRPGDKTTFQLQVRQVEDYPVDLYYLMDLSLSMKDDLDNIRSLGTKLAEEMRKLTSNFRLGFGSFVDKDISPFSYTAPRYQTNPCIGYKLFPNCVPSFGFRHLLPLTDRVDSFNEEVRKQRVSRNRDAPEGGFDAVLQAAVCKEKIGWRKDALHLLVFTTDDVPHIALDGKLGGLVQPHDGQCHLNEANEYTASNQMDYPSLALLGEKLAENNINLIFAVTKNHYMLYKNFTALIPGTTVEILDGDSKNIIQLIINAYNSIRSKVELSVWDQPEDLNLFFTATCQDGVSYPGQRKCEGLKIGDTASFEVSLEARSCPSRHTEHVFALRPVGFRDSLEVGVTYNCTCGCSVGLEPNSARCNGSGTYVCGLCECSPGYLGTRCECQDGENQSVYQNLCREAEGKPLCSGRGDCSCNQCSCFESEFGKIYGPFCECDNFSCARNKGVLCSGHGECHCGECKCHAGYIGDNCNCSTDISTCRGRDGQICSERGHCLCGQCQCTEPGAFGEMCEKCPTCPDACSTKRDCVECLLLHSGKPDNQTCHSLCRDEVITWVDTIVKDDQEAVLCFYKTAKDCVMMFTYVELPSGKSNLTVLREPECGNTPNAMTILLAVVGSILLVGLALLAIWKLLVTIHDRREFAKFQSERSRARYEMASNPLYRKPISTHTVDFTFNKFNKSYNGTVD

human αvβ6-Integrin = biological target: T6, human αvβ6-Integrin (Homo sapiens, UniProt P06756+P18564); assay: ELISA-like solid-phase binding assay, soluble integrin αvβ6 vs coated LAP (TGF-β); details: for IC50: coated LAP, soluble integrin, referenced to internal standard
T6 construct: purchased R&D
T6 sequence (P06756 31-992 limits assumed): as the sequence (P06756 31-992 limits assumed) above
T6 sequence (P18564 22-707 limits assumed): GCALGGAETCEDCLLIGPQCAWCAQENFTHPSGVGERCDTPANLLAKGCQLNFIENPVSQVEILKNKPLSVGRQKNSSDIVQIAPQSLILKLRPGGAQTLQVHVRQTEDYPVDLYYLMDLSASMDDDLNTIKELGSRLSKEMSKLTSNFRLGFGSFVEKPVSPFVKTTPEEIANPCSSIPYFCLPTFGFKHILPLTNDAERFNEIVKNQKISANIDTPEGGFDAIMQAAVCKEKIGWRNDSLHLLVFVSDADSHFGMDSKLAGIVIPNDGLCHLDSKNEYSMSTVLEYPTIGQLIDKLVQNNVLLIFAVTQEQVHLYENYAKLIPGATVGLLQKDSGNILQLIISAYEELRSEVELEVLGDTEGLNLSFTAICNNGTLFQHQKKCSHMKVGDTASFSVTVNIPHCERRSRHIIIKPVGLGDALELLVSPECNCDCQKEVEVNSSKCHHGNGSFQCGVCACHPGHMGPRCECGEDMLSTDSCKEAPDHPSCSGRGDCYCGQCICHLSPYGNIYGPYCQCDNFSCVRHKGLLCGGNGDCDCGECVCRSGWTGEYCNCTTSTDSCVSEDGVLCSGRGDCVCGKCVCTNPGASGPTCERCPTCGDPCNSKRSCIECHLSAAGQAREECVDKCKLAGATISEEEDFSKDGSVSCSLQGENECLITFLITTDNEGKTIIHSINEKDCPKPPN

α5β1 integrin [3] = biological target: T1, α5β1 integrin; assay: Solid phase binding assay with surface-coated integrin and soluble fibronectin; details: incubation with fibronectin, unpublished data
Experimental: Tests carried out in cell-free systems, use isolated extracellular domains of integrins in conjunction with ECM proteins, either extracted from human tissue or produced by recombinant methods. Most of these tests are based on competitive solid phase binding assays, in which one component is bound to the multi-well plate and in a subsequent step, soluble ligands are added, testing their capacity to block the binding to that component. Mainly two procedures are described in the literature, differing in the molecule used to coat the surfaces: the isolated integrin extracellular domains or the ECM protein. In the first case, the integrin is coated on the surface, followed by an incubation with a mixture of the native ECM protein and increasing concentrations of the ligand of interest. In an alternative test system, the natural ECM protein (vitronectin for αvβ3 and αvβ5, LAP (TGFβ) for αvβ6 and αvβ8, fibronectin for α5β1 and fibrinogen for αIIbβ3) is immobilized onto the surface, and the soluble integrin, together with a serial dilution of the inhibitory ligand, is added afterwards. The read-out in both procedures is usually done in an ELISA-like manner by using conjugated antibodies recognizing the integrin head groups. […] For a detailed description of the reference to the SI. […]

[4] = cited from earlier work
[5] = coated fibronectin, soluble integrin, referenced to internal standard, read-out: IC50 α5β1

Compound | IC50 (α5β1 integrin [1]; [5]) | IC50 [2] | IC50 (human αvβ3-integrin) | IC50 (human αvβ8-Integrin) | IC50 (human αvβ5-integrin) | IC50 (human αvβ6-Integrin) | further results
CC(C)C[C@H](NC(=O)[C@H](CO)NC(=O)[C@H](CC(=O)O)NC(=O)[C@H](CC(C)C)NC(=O)[C@H](CC(=O)O)NC(=O)[C@@H](NC(=O)[C@@H](N)CCCNC(=N)N)[C@@H](C)O)C(=O)N[C@@H](CCCNC(=N)N)C(=O)N[C@H](C(=O)O)[C@@H](C)O | > 10000 nM | > 10000 nM | 6230 ± 540 nM | 320 ± 25 nM | > 10000 nM | – | –
CC(C)C[C@H](NC(=O)[C@H](CC(=O)O)NC(=O)CNC(=O)[C@H](CCCNC(=N)N)NC(=O)[C@H](CC(C)C)NC(=O)[C@H](CC(N)=O)NC(=O)[C@@H]1CCCN1C(=O)[C@@H](NC(=O)[C@H](C)NC(=O)[C@@H](N)CC(N)=O)C(C)C)C(=O)N[C@@H](CCC(N)=O)C(=O)N[C@H](C(=O)N[C@@H](CC(C)C)C(=O)N[C@@H](C)C(=O)N[C@@H](CCC(N)=O)C(=O)N[C@@H](CCCCN)C(=O)N[C@H](C(=O)N[C@@H](C)C(=O)N[C@@H](CCCNC(=N)N)C(=O)N[C@H](C(=O)O)[C@@H](C)O)C(C)C)C(C)C [A20FMDV2] | – | – | – | – | – | – | IC50 (α5β1 integrin [1]): > 10000 nM
CC(=O)N1CCC[C@H]1C(=O)N[C@@H](Cc1c[nH]cn1)C(=O)N[C@@H](CO)C(=O)N[C@@H](CS)C(=O)N[C@@H](CC(N)=O)C(N)=O [ATN161, Ac-PHSCN-NH2] (Ac-PHSCN-NH2) | 4.2 ± 0.5 nM | > 10000 nM | > 10000 nM | > 10000 nM | > 10000 nM | 3130 ± 591 nM | –
CC(C)[C@H]1C(=O)N[C@@H](CCCNC(=N)N)C(=O)NCC(=O)N[C@@H](CC(=O)O)C(=O)N[C@H](Cc2ccccc2)C(=O)N1C [Cilengitide, c(RGDf(NMe)V)] | – | – | – | – | – | – | antagonistic activity towards coated α5β1 (α5β1 integrin [3]): low antagonistic activities; half-life in man [4]: about four; systemic metabolism ([4]; man): not metabolized systemically
N=C(N)NCCC[C@@H]1NC(=O)[C@@H]2CSSC[C@H](NC(=O)[C@H](CC(=O)O)NC(=O)CNC1=O)C(=O)N[C@@H](Cc1ccccc1)C(=O)N[C@H](C(=O)NCCOCCOCCOCCNC(=O)COCC(N)=O)CSCC(=O)N[C@@H](CCCCNC(=O)COCC(=O)NCCOCCOCCOCCOCCOCCNC(=O)CO/N=C/c1ccc(F)cc1)C(=O)N2 [Flucilatide] ({CH2CO}-K(X1)CRGDCFC-X2; disulfide 2-6; thioether N-8; N-terminus and C-terminus assumed) | – | – | – | – | – | – | fold change of αvβ3 IC50-value after functionalization (human αvβ3-integrin; versus targeting unit NC100717): 3 fold
N=C(N)c1ccc(N2CCN(C3CCN(CC(=O)O)CC3)CC2)cc1 [GR144053, 4-[4-[4-(aminoiminomethyl)phenyl]-1-piperazinyl]-1-piperidineacetic acid] | > 10000 nM | 18 ± 2.2 nM | > 10000 nM | > 10000 nM | > 10000 nM | > 10000 nM | –
N=C(N)NCCC[C@H](NC(=O)CN)C(=O)NCC(=O)N[C@@H](CC(=O)O)C(=O)N[C@@H](CC(N)=O)C(=O)N1CCC[C@H]1C(=O)O [GRGDNP] (H-GRGDNP-OH) | 34 ± 3 nM | > 10000 nM | 45 ± 12 nM | > 10000 nM | 506 ± 120 nM | > 10000 nM | –
NCCCC[C@H](NC(=O)[C@@H]1CCCN1C(=O)[C@H](CO)NC(=O)[C@H](CC(=O)O)NC(=O)CNC(=O)[C@H](CCCN=C(N)N)NC(=O)CN)C(=O)O [GRGDSPK] | 66 ± 6 nM | > 10000 nM | 12.2 ± 0.1 nM | > 10000 nM | 201 ± 32 nM | 1030 ± 242 nM | –
N=C(N)NCCC[C@H](NC(=O)CN)C(=O)NCC(=O)N[C@@H](CC(=O)O)C(=O)N[C@@H](CO)C(=O)O [GRGDS] | 77 ± 8 nM | – | – | – | – | – | –
C[C@@H](O)[C@H](NC(=O)[C@H](CC(=O)O)NC(=O)CNC(=O)[C@H](CCCNC(=N)N)NC(=O)CN)C(=O)N1CCC[C@H]1C(=O)O [GRGDTP] (H-GRGDTP-OH) | 84 ± 12 nM | > 10000 nM | 28 ± 5 nM | > 10000 nM | 423 ± 65 nM | > 10000 nM | –
N=C(N)NCCC[C@H](NC(=O)CN)C(=O)NCC(=O)N[C@@H](CC(=O)O)C(=O)O [GRGD] (H-GRGD-OH) | 137 ± 14 nM | > 10000 nM | 55 ± 7 nM | > 10000 nM | 580 ± 23 nM | > 10000 nM | –
Cc1ccnc(NCCCC(=O)NCC(=O)NC(CC(=O)O)c2ccc(-c3cccc4ccccc34)cc2)c1 (centres unmarked) [Mol11*] | 3020 ± 410 nM | > 10000 nM | 13.2 ± 0.5 nM | 18.5 ± 4.3 nM | 530 ± 49 nM | 1.3 nM and 1.32 nM | –
N=C(N)NCCC[C@@H]1NC(=O)[C@@H]2CSSC[C@H](NC(=O)[C@H](CC(=O)O)NC(=O)CNC1=O)C(=O)N[C@@H](Cc1ccccc1)C(=O)N[C@H](C(=O)NCCOCCOCCOCCNC(=O)COCC(N)=O)CSCC(=O)N[C@@H](CCCCN)C(=O)N2 [NC100717] ({CH2CO}-KCRGDCFC-X2; disulfide 2-6; thioether N-8; N-terminus and C-terminus assumed) | 820 ± 156 nM | > 10000 nM | 1.1 ± 0.1 nM | > 10000 nM | 16.7 ± 2.1 nM | > 10000 nM | –
C[C@H](N)C(=O)N[C@H]1CSSC[C@@H](C(=O)NCC(=O)O)NC(=O)[C@H](Cc2ccccc2)NC(=O)[C@@H]2CSSC[C@H](NC(=O)[C@H](CC(=O)O)NC1=O)C(=O)N[C@@H](CCCNC(=N)N)C(=O)NCC(=O)N[C@@H](CC(=O)O)C(=O)N2 [RGD-4C] (H-ACDCRGDCFCG-OH; disulfide 2-10, 4-8) | 244 ± 37 nM | > 10000 nM | 8.3 ± 2.1 nM | > 10000 nM | 46 ± 11 nM | 380 ± 44 nM | IC50 αIIbβ3 [2]: no affinity; IC50 αvβ8 (human αvβ8-Integrin): no affinity
NC(N)=NCCC[C@H](N)C(=O)NCC(=O)N[C@@H](CC(=O)O)C(=O)N[C@@H](CO)C(=O)O [RGDS] | 181 ± 23 nM | – | 45 ± 5 nM | > 10000 nM | 433 ± 34 nM | > 10000 nM | –
N=C(N)NCCC[C@H](N)C(=O)NCC(=O)N[C@@H](CC(=O)O)C(=O)O [RGD] | – | > 10000 nM | 89 ± 12 nM | > 10000 nM | 440 ± 65 nM | > 10000 nM | –
CCCCS(=O)(=O)N[C@@H](Cc1ccc(OCCCCC2CCNCC2)cc1)C(=O)O [Tirofiban] | > 10000 nM | – | > 10000 nM | > 10000 nM | > 10000 nM | > 10000 nM | –
N=C(N)NCCC[C@@H]1NC(=O)[C@H](CS)NC(=O)[C@@H](Cc2ccccc2)NC(=O)[C@H](CC(=O)O)NC(=O)CNC1=O [c(RGDfC)] (cyclo(RGD[dF]C)) | 215 ± 55 nM | > 10000 nM | 6.3 ± 0.5 nM | > 10000 nM | 433 ± 23 nM | 121 ± 10 nM | –
N=C(N)NCCC[C@@H]1NC(=O)[C@H](CCCCNC(=O)CCOCCOCCOCCOCCOCCOCCNC(=O)CCS)NC(=O)[C@@H](Cc2ccccc2)NC(=O)[C@H](CC(=O)O)NC(=O)CNC1=O [c(RGDfK)-Peg-MPA] | 201 ± 31 nM | > 10000 nM | 15 ± 1.8 nM | > 10000 nM | 390 ± 53 nM | 422 ± 44 nM | –
N=C(N)NCCC[C@@H]1NC(=O)[C@H](CCCCN)NC(=O)[C@@H](Cc2ccccc2)NC(=O)[C@H](CC(=O)O)NC(=O)CNC1=O [c(RGDfK)] | 141 ± 15 nM | > 10000 nM | – | 5200 ± 670 nM | 340 ± 24 nM | – | –
N=C(N)NCCC[C@@H]1NC(=O)[C@H](CCCCN)NC(=O)[C@@H](Cc2ccc(O)cc2)NC(=O)[C@H](CC(=O)O)NC(=O)CNC1=O [c(RGDyK)] | 236 ± 45 nM | – | – | > 10000 nM | – | – | –
N=C(N)NCCC[C@@H]1NC(=O)CNC(=O)C[C@@H](C(=O)O)NC(=O)[C@@H](c2ccccc2)NC(=O)[C@@H](CCCCNC(=O)COCCOCCNC(=O)CCS)NC1=O [c(phgisoDGRk)-Peg-MPA] (GR[dK]([AEEA-Mpa])[dPhg]D-OH; lactam N-5) | 31 ± 3.4 nM | > 10000 nM | > 10000 nM | > 10000 nM | > 10000 nM | 52 ± 4.8 nM | fold change of α5β1 IC50-value after functionalization (α5β1 integrin [1]; versus c(phgisoDGRk)): 2 fold; fold change of αvβ6 IC50-value after functionalization (human αvβ6-Integrin; versus c(phgisoDGRk)): 2 fold
N=C(N)NCCC[C@@H]1NC(=O)CNC(=O)C[C@@H](C(=O)O)NC(=O)[C@@H](c2ccccc2)NC(=O)[C@@H](CCCCN)NC1=O [c(phgisoDGRk)] (GR[dK][dPhg]D-OH; lactam N-5) | 9.43 ± 1.33 nM | > 10000 nM | > 10000 nM | 77 ± 6 nM | > 10000 nM | 18 ± 2.5 nM | –
Echistatin | 0.57 ± 0.19 nM | 0.9 ± 0.24 nM | 0.46 ± 0.14 nM | 12.8 ± 2.5 nM | 1.4 ± 0.2 nM | – | –

From article PMC5225454, “A Comprehensive Evaluation of the Activity and Selectivity Profile of Ligands for RGD-binding Integrins” (Scientific Reports, 2017)
